pIC50: −log10 of the molar value. Values joined by “and” are separate entries in the source; they are usually repeats but may differ in a detail not shown here. Equal values may be shown once. Marks after values point to notes of the source that are not given here.
Key:
[1] = system: carrageenan-induced rat paw edema; test: Carrageenan-induced rat paw edema anti-inflammatory assay; format: in vivo; settings: for ED50: 3 h after oral administration, rat, read-out: AI activity ID50
ovine COX-2 = target: T1, ovine COX-2 (Ovis aries, UniProt P79208); test: In vitro ovine COX-2 enzyme inhibition (EIA kit); format: biochemical; settings: for pIC50: ovine COX-2, mean of two determinations
T1 construct: purchased Cayman Chemical 560101
T1 sequence (P79208 17-603): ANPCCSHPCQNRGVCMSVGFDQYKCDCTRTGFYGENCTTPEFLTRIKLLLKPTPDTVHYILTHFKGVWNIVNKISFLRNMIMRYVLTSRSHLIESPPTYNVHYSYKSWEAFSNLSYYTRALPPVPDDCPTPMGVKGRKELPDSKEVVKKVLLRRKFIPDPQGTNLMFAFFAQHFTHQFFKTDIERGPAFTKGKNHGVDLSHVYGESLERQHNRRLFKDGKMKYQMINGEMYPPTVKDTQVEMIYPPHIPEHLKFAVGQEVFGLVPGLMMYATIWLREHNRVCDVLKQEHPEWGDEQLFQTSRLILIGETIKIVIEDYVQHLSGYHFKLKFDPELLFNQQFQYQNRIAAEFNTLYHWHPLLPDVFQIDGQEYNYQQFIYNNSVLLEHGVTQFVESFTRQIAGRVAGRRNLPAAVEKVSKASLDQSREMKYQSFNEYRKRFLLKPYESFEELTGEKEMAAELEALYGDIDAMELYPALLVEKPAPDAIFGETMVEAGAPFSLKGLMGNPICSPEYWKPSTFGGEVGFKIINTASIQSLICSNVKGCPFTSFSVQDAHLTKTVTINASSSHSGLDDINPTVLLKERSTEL

[2] = Nitric oxide release in phosphate buffer (Griess reaction); format: physicochemical; settings: PBS pH 7.4, 37° C., 1.5 h; relative to theoretical maximum 2 mol NO/mol
Description: (§1) Nitric Oxide Release Assay: In vitro nitric oxide release, upon incubation with phosphate buffer, pig liver esterase, or guinea pig serum, was determined by quantification of nitrite produced by the reaction of nitric oxide with oxygen and water using the Griess reaction.

pig liver esterase = settings: 1.5 h, pH 7.4
Description: as §1

gastric ulcers = test: Acute ulcerogenesis assay (gastric ulcer index); format: in vivo, rats; settings: oral, 6 h, rat
Description: All drugs were suspended and administered in 1.7 mL of a 1% methylcellulose solution. Control rats received oral administration of vehicle (1.7 mL of 1.0% methylcellulose solution). Food, but not water, was removed 24 h before administration of test compounds. Six hours after oral administration of the drug, rats were euthanized in a CO2 chamber and their stomachs were removed, cut out along the greater curvature of the stomach, gently rinsed with water and placed on ice. The number and the length of ulcers were determined using a magnifier lens. […] The average overall length (in mm) of individual ulcers in each tissue was designated as the “ulcer index”. Each experimental group consisted of four rats.

ovine COX-1 = target: T2, ovine COX-1 (Ovis aries, UniProt P05979); test: In vitro ovine COX-1 enzyme inhibition (EIA kit); format: biochemical; settings: mean of two determinations
T2 construct: purchased Cayman Chemical 560101
T2 sequence (P05979 25-600): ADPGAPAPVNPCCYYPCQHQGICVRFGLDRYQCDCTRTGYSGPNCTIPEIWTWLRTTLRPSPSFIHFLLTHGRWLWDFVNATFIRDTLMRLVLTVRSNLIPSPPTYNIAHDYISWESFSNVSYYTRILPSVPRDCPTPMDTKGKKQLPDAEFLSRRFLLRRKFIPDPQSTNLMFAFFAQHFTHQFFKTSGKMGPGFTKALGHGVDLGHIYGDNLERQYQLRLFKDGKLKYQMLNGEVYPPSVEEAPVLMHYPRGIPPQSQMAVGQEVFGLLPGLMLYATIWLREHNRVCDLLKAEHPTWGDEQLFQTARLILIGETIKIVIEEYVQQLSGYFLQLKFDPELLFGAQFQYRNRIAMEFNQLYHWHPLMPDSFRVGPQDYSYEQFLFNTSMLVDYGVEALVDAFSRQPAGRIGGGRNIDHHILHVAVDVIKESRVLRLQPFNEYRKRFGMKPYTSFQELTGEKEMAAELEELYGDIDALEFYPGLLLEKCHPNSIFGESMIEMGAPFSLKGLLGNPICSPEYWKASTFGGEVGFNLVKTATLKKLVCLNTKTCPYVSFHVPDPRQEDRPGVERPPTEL

[3] = equivalent amount to 250 mg of aspirin/kg
[4] = equivalent amount to 250 mg of ibuprofen/kg

COX-2 S.I. (COX-1 IC50/COX-2 IC50) (ovine COX-2; selectivity index)	% of Nitric oxide released, PBS (pH 7.4) [2] [%]	% of Nitric oxide released, PLE (pig liver esterase) [%]	pIC50 (ovine COX-2)	pIC50 (ovine COX-1)	Compound	ED50 [1] [mg/kg]	Ulcer index (gastric ulcers; [3])	Ulcer index (gastric ulcers; [4])	Ulcer index (gastric ulcers; equivalent amount to 30 mg of indomethacin/kg)	fold less potent relative to the parent drug (ID50) ([1]; carrageenan-induced rat paw edema, oral)
–	–	–	–	–	CC(C)Cc1ccc(C(C)C(=O)O)cc1 (racemic) [Ibuprofen, ibuprofen, reference compound]	67.4	–	–	–	–
0.14	–	–	–	–	CC(=O)Oc1ccccc1C(=O)O [Aspirin, Acetyl salicylic acid, reference compound]	129	–	–	–	–
–	95.2 ± 0.1	–	–	–	CN(C)[N+]([O-])=N[O-].[Na+] [Compound 7, O^2-Sodium 1-(N,N-dimethylamino)diazen-1-ium-1,2-diolate, reference compound]	–	–	–	–	–
–	14.8 ± 0.1	18.5 ± 0.1	< 4.00	< 4.00	CC(=O)Oc1ccccc1C(=O)OCON=[N+]([O-])N1CCCC1 [Compound 11, O^2(Acetylsalicyloyloxymethyl)-1-(pyrrolidin-1-yl)diazen-1-ium-1,2-diolate]	182	0 mm and 0^d mm	–	–	–
–	15.4 ± 0.1	19.1 ± 0.1	< 4.00	< 4.00	CC(=O)Oc1ccccc1C(=O)OCON=[N+]([O-])N(C)C [Compound 12, O^2(Acetylsalicyloyloxymethyl)-1-(N,N-dimethylamino)diazen-1-ium-1,2-diolate]	151	0 mm and 0^d mm	–	–	–
–	14.9 ± 0.1	16.3 ± 0.1	< 4.00	< 4.00	CC(C)Cc1ccc(C(C)C(=O)OCON=[N+]([O-])N2CCCC2)cc1 (stereo not drawn) [Compound 13, O^2-[2-(4-(Isobutyl)phenyl)propanoyloxymethyl]-1-(pyrrolidin-1-yl)diazen-1-ium-1,2-diolate]	66.8	–	0 mm and 0^e mm	–	–
–	16.1 ± 0.1	17.3 ± 0.1	< 4.00	< 4.00	CC(C)Cc1ccc(C(C)C(=O)OCON=[N+]([O-])N(C)C)cc1 (stereo not drawn) [Compound 14, O^2-[2-(4-(Isobutyl)phenyl)propanoyloxymethyl]-1-(N,N-dimethylamino)diazen-1-ium-1,2-diolate]	62.3	–	0 mm and 0^e mm	–	–
–	–	–	–	–	COc1ccc2c(c1)c(CC(=O)O)c(C)n2C(=O)c1ccc(Cl)cc1 [Indomethacin, indomethacin, reference compound]	4.2	–	–	–	–
–	94.0 ± 0.1	–	–	–	[Na+].[O-]N=[N+]([O-])N1CCCC1 [O^2-sodium 1-(pyrrolidin-1-yl)diazen-1-ium-1,2-diolate, reference compound]	–	–	–	–	–

Compound	COX-2 S.I. (COX-1 IC50/COX-2 IC50) (ovine COX-2; selectivity index)	% of Nitric oxide released, PBS (pH 7.4) [2] [%]	% of Nitric oxide released, PLE (pig liver esterase) [%]	pIC50 (ovine COX-2)	pIC50 (ovine COX-1)	ED50 [1] [mg/kg]	Ulcer index (gastric ulcers; [3])	Ulcer index (gastric ulcers; [4])	Ulcer index (gastric ulcers; equivalent amount to 30 mg of indomethacin/kg)	fold less potent relative to the parent drug (ID50) ([1]; carrageenan-induced rat paw edema, oral)
COc1ccc2c(c1)c(CC(=O)OCON=[N+]([O-])N1CCCC1)c(C)n2C(=O)c1ccc(Cl)cc1 [Compound 15, O^2-[2-(1-(4-Chlorobenzoyl)-5-methoxy-2-methyl-1H-indol-3-yl)acetoxymethyl]-1-(pyrrolidin-1-yl)diazen-1-ium-1,2-diolate]	–	15.1 ± 0.1	16.3 ± 0.1	< 4.00	< 4.00	10.7	–	–	0.7 ± 0.11^f mm	about 2.5 fold
COc1ccc2c(c1)c(CC(=O)OCON=[N+]([O-])N(C)C)c(C)n2C(=O)c1ccc(Cl)cc1 [Compound 16, O^2-[2-(1-(4-Chlorobenzoyl)-5-methoxy-2-methyl-1H-indol-3-yl)acetoxymethyl]-1-(dimethylamino)diazen-1-ium-1,2-diolate]	–	14.3 ± 0.1	16.9 ± 0.1	< 4.00	< 4.00	5.9	–	–	–	–

Reference: patent US20080214646A1 (priority 2005, published 2008)
